The numbers were not newly measured in patent US10645923B2, “Insect bait” (priority 2010, dated 2020), which cites them from elsewhere.

In data set [1] the test system is V. Germanica. As to conditions: hydramethylnon 2%, after 72 hours.
Data set [2] concerns wasps. As to conditions: fipronil versus sulfluramid; faster acting.
The subject of data set [3] is Vespula spp. The note with it: treated areas.
The test system of data set [4] is wasps. As to conditions: beef baited with fipronil, North West Patagonia (Argentina).

In the case of `CC1(C)CNC(=NN=C(/C=C/c2ccc(C(F)(F)F)cc2)/C=C/c2ccc(C(F)(F)F)cc2)NC1` [hydramethylnon], in data set [1], the “reduction of wasp populations” value was 54%.
For the compound `N#Cc1nn(-c2c(Cl)cc(C(F)(F)F)cc2Cl)c(N)c1[S+]([O-])C(F)(F)F` (stereo not shown) [Fipronil], the “concentration factor lower than sulfluramid at equal toxicity” value in data set [2] is recorded as 1000 times. In addition, the “reduction of colony activity” value in data set [3] is on record as 99.7%. In addition, in data set [4], the “reduction of wasp densities” value is 80-100%.
